Experimental data as given in patent US8367079B2, “Liquid preservative compositions” (Rhodia Operations, priority 2008, dated 2013).

Key:
Format in all cases: cell-based
Candida albicans = assay: Preservative challenge test in cleanser base, plate count; settings: inoculum about 1×10^5 to 1×10^6 cfu/mL, about 22° C.; for Day-7 Plate Count, CA: 7 days after challenge; for Day-14 Plate Count, CA: 14 days after challenge, TN = too numerous to count
Procedure: (§1) Several 200-gram samples of a cleanser base were admixed with a variety of preservative compositions, and challenged with selected bacteria and fungi (Escherichia coli, Pseudomonas aeruginosa, Staphylococcus aureus, Aspergillus niger, and Candida albicans) according to the following procedure:
(§2) About 0.5 mL of an aqueous suspension containing about 1×10^6 to about 2×10^7 colony forming units-per-milliliter (cfu/mL) of Aspergillus niger in a pH 7.2 phosphate buffer was transferred to a tube containing about 9.5 mL of a sample of a cleanser base composition to provide an inoculum level of about 1×10^5 to about 1×10^6 cfu/mL. The same procedure was used to challenge samples of the cleanser base with Candida albicans and with a mixed culture of Escherichia coli, Pseudomonas aeruginosa, and Staphylococcus aureus, at about the same inoculum levels. The challenged samples were stored at an ambient room temperature of about 22° C. At 7 days and 14 days after challenge, aliquots from each sample were diluted according to the following procedure: about 1 mL of each challenged sample was aseptically transferred into a tube containing about 9 mL of Dey/Engley (D/E) neutralizing broth with thorough mixing to provide a dilution ratio of about 1:10. About […] of each of the 1:10 diluted samples was then aseptically transferred into separate tubes, each tube containing about 9 mL of sterile buffered saline solution, (3.5 g/L phosphoric acid in 0.9 wt. % NaCl solution, adjusted to pH 7.2 with 50 wt. % aqueous sodium hydroxide), with thorough mixing, to provide a dilution ratio of about 1:1000.
(§3) Finally, each of the 1:10 diluted samples and each of the 1:1000 diluted samples were plated according to the following procedure: about 1 mL of each of the diluted samples was plated with Letheen agar (bacteria samples) or Sabouraud dextrose agar (yeast and mold samples). The Letheen agar plates were incubated at 35±2° C. for about 48 hours (about 2 days) in an inverted position, and the resulting microbial colonies were counted. The Sabouraud dextrose agar plates were incubated at 25±2° C. for about 120 hours (about 5 days) in an upright position and the resulting microbial colonies were counted.
(§4) The formulations of the cleanser base and the D/E Neutralizing Broth used in these evaluations are provided in Table 1 and Table 2, respectively.

Staphylococcus aureus = assay: as above; settings: inoculum about 1×10^5 to 1×10^6 cfu/mL, about 22° C.; for Day-7 Plate Count, SA: 7 days after challenge; for Day-14 Plate Count, SA: 14 days after challenge
Procedure: as §1, §2, §3, §4

Aspergillus niger = assay: as above; settings: inoculum about 1×10^5 to 1×10^6 cfu/mL, about 22° C.; for Day-7 Plate Count, AN: 7 days after challenge; for Day-14 Plate Count, AN: 14 days after challenge
Procedure: as §1, §2, §3, §4

Escherichia coli = assay: as above; settings: inoculum about 1×10^5 to 1×10^6 cfu/mL, about 22° C., TN = too numerous to count; for Day-7 Plate Count, EC: 7 days after challenge; for Day-14 Plate Count, EC: 14 days after challenge
Procedure: as §1, §2, §3, §4

Pseudomonas aeruginosa = assay: as above; settings: inoculum about 1×10^5 to 1×10^6 cfu/mL, about 22° C., TN = too numerous to count; for Day-7 Plate Count, PA: 7 days after challenge; for Day-14 Plate Count, PA: 14 days after challenge
Procedure: as §1, §2, §3, §4

P. aeruginosa 9027 = assay: Minimum Inhibitory Concentration (MIC) evaluation, broth dilution; settings: Mueller-Hinton broth, two-fold dilutions, about 35° C. for about 24 hours, visible growth
Procedure: (§5) In this evaluation, nutrient broth solutions were made with different concentrations of the test compounds, and then all the solutions were spiked with the same concentration of test organism. Growth was indicated by a solution becoming hazy after 24 hours of incubation time. The highest dilution without observable growth is the Minimal Inhibitory Concentration (MIC).
(§6) The following procedure was adopted from the Manual of Clinical Microbiology, 2nd Ed. published by the American Society for Microbiology, ISBN 0-914826-00-X.
(§7) Prepare and sterilize Mueller-Hinton Broth (MH broth) (Fluka) per the manufacturer's instructions (dissolve 23 grams in one liter water and autoclave at 121° C. for 15 minutes minimum).
(§8) The stock antimicrobial solution is diluted (in MH broth) to twice the highest final test concentration desired. Sterile 13×100 mm screw-capped culture tubes are used. Two-fold dilutions are made directly in the tubes. To the first tube is added 2 mL of the working solution of antimicrobial agent. To each remaining tube is added 1 mL of broth. Using aseptic technique, an amount of 1 mL is transferred from the first tube to the second tube and is thoroughly mixed. After thorough mixing, 1 mL is transferred from the second tube to the third tube. This process is repeated through the second to last tube, from which 1 mL is removed and discarded. The final tube receives no antimicrobial agent and serves as a growth control.
(§9) Buffered saline (3.5 g/L phosphoric acid in a 0.9% NaCl solution, pH adjusted to 7.2 with 50 wt. % aqueous NaOH, sterilized by autoclave).
(§10) The organisms are preferably lyophilized Microbiologics E^power E7 microorganisms (mean assay value of between 10 million and 100 million colony forming units or equivalent concentration). The final concentrations of the microorganism in the inoculum should be in the order of 10^6-10^7 cfu/mL.
(§11) 1. Allow unopened vial of microorganism pellets to equilibrate to room temperature.
(§12) 2. Warm 1 tube of 10 mL buffered saline per organism used to about 35-37° C.
(§13) 3. Using sterile forceps, transfer 2 pellets to the saline and return unused pellets to storage.
(§14) 4. Incubate the hydrated material at about 35-37° C. for about 30 minutes.
(§15) 5. Vortex the vials until homogeneous.
(§16) 6. Add 1.0 ml of the diluted culture suspension to each of the previously prepared tubes containing the preservative compositions. The final concentration of preservative is now one-half of the original concentration in each tube.
(§17) All tubes were incubated at about 35° C. for about 24 hours. The tubes were then examined for visible signs of bacterial growth.
(§18) The MIC values from Table 5 were then used to calculate the Fractional Inhibitory Concentration Index (FICI) (sometimes called the Synergy Index) of GCM and GCP versus the various individual test organisms using the following equation. FICI=(MICa/MICA)+(MICb/MICB)

A. niger 16404 = assay: as above; settings: Mueller-Hinton broth, two-fold dilutions, about 35° C. for about 24 hours, visible growth
Procedure: as §5, §6, §7, §8, §9, §10, §11, §12, §13, §14, §15, §16, §17, §18

S. aureus 6538 = assay: as above; settings: Mueller-Hinton broth, two-fold dilutions, about 35° C. for about 24 hours, visible growth
Procedure: as §5, §6, §7, §8, §9, §10, §11, §12, §13, §14, §15, §16, §17, §18

Row | Structure (SMILES) | Day-7 Plate Count, CA (Candida albicans) [cfu] | Day-14 Plate Count, CA (Candida albicans) [cfu] | Day-7 Plate Count, SA (Staphylococcus aureus) [cfu] | Day-14 Plate Count, SA (Staphylococcus aureus) [cfu] | Day-7 Plate Count, AN (Aspergillus niger) [cfu] | Day-14 Plate Count, AN (Aspergillus niger) [cfu] | Day-7 Plate Count, EC (Escherichia coli) [cfu] | Day-14 Plate Count, EC (Escherichia coli) [cfu] | Day-7 Plate Count, PA (Pseudomonas aeruginosa) [cfu] | Day-14 Plate Count, PA (Pseudomonas aeruginosa) [cfu] | MIC Values, P. aeruginosa (P. aeruginosa 9027) [%] | MIC Values, A. niger (A. niger 16404) [%] | MIC Values, S. aureus (S. aureus 6538) [%]
1 | Cn1sccc1=O [Ex. B, 2-methyl-4-isothiazolin-3-one] | 10500 | 15000 | 215 | 6500 | 1000 | 500 | 155 | 10 | 115 | <10 |  |  | 
2 | CCCCCCCC(=O)OCC(O)CO (centres unmarked) [Ex. C, glyceryl caprylate] | 500 | 485 | <10 | 1000 | 1000 | 280 | 15 | 10 | 7500 | 117500 |  |  | 
3 | OCCc1ccccc1 [Ex. D, phenethyl alcohol] | 91000 | 2000 | 7500 | 1000 | 25 | <10 | 380 | 1000 | 10 | 1000 |  |  | 
4 | O=C([O-])c1ccccc1.[Na+] [Ex. E, sodium benzoate] | 336500 |  | 9000 | 500 | 1500 | 3500 |  |  |  |  |  |  | 
5 | CCCCCCCC(=O)OCC(O)CO (centres unmarked) [GC, glyceryl caprylate] |  |  |  |  |  |  |  |  |  |  | 1.0 | 2.0 | 1.0
6 | Cn1sccc1=O [MI, 2-methyl-4-isothiazolin-3-one] |  |  |  |  |  |  |  |  |  |  | 0.008 | 0.1 | 0.1
7 | OCCc1ccccc1 [PEA, phenethyl alcohol] |  |  |  |  |  |  |  |  |  |  | 0.9 | 1.0 | 0.9
